From paper PMC12040169 (PLOS Biology, 2025)

experiment: in vitro; conditions: human, hela cells, % viability

Compound	viability at 28.5 h, 10 µM [%]
Cc1ccc(S(=O)(=O)N(CC(=O)Nc2ccccc2F)c2cc(Cl)ccc2Cl)cc1 [CBK268647]	111
CN(CC(=O)Nc1ccccc1C(N)=O)S(=O)(=O)c1ccc(Br)cc1 [CBK268648]	98.7
O=C(NC(=S)Nc1cc(-c2nc3ccccc3[nH]2)ccc1Cl)c1ccccc1[N+](=O)[O-] [CBK268649]	93.7
CN1CCN(C(=O)CNC(=O)CNS(=O)(=O)c2ccccc2)CC1 [CBK268651]	90.9
CC(C)(C)N1C(=O)c2ccc(C(=O)NNC(=O)C(C#N)C(=O)c3ccc4c(c3)C(=O)N(C(C)(C)C)C4=O)cc2C1=O (stereo not drawn) [CBK268652]	90.3
Cc1ccc(SCCN2CCN(Cc3ccccc3)CC2)cc1 [CBK268653G]	99.1
COc1ccccc1NC(=O)CNC(=O)c1ccc([N+](=O)[O-])cc1 [CBK268657]	91.9
CCOC(=O)N1CCN(C(=O)c2ccc(CS(=O)(=O)c3ccc(C)cc3)cc2)CC1 [CBK268659]	88.3
CCOC(=O)c1ccc(NC(=O)C(C)Oc2ccccc2C)cc1 (stereo not drawn) [CBK268660]	102
COc1ccc(OC)c(NC(=O)Cn2cc(C(C)=O)c3ccccc32)c1 [CBK268661]	92.5
Cc1[nH]c2ccccc2c1C(=O)CSc1nnc(Cc2cccs2)n1C [CBK268663]	105
CN(C)S(=O)(=O)N(CC(=O)Nc1ccccc1C(F)(F)F)c1ccccc1 [CBK268665]	102
CCc1cccc(C)c1NC(=O)CN(c1cccc(Cl)c1Cl)S(=O)(=O)c1ccc(C)cc1 [CBK268666]	84.7
Cc1ccc(O)c(NC(=O)COc2ccc(Cl)cc2)c1 [CBK268670]	108
NC(=O)CSc1nnc(-c2cccnc2)n1Cc1ccccc1 [CBK268672]	99.2
O=C(Nc1ccc2oc(-c3cccnc3)nc2c1)c1cc([N+](=O)[O-])ccc1N1CCOCC1 [CBK268674]	95
Cc1ccc(NC(=O)CSc2nnc3c4c5c(sc4nc(-n4nc(C)cc4C)n23)COC(C)(C)C5)cc1 [CBK268675]	93.2
Cc1cccc(N(CC(=O)Nc2cccnc2)S(=O)(=O)c2ccc(Cl)cc2)c1 [CBK268676]	85.3
Cc1ccc(C)c2c1c1nc3ccccc3nc1n2Cc1nnc(-c2ccccc2)o1 [CBK268677]	104
CCc1nnc(SCC(=O)N2c3ccccc3Sc3ccccc32)[nH]1 [CBK268687]	110
CCn1c(Cc2ccccc2)nnc1SCC(=O)Nc1cc(Cl)ccc1O [CBK268689]	104

Compound	viability at 28.5 h, 10 µM [%]
COc1ccc(C(=O)NCCCSc2nc(C(C)(C)C)cc(C(F)(F)F)n2)cc1 [CBK268690]	99.7
CSc1ncc(Cl)c(C(=O)Nc2nnc(SC/C=C/c3ccccc3)s2)n1 [CBK268691]	93.5
Cc1cc(C)c(NC(=O)CSc2nc(C)c(Cc3ccccc3Cl)c(O)n2)c([N+](=O)[O-])c1 [CBK268693]	90.4
CCN(CC(=O)O)S(=O)(=O)c1cc(C)ccc1OC [CBK268694]	98.7
CC(C)C(NS(=O)(=O)c1ccc(I)cc1)C(=O)O (stereo not drawn) [CBK268703]	106
COC(=O)CC1C(=O)NCCN1C(=S)NC(=O)c1ccc(-c2ccccc2)cc1 (stereo not drawn) [CBK268711]	105
O=C(c1nc(SCc2ccccc2)ncc1Cl)N1CCN(c2cccc(Cl)c2)CC1 [CBK268712]	113
O=C1CC(N2CCN(c3ccc(S(=O)(=O)N4CCOCC4)cc3)CC2)C(=O)N1Cc1ccccc1 (stereo not drawn) [CBK268713]	107
COC(=O)c1ccc(N2C(=O)CC(N3CCC(n4c(=O)[nH]c5ccccc54)CC3)C2=O)cc1 (stereo not drawn) [CBK268714]	94.6
O=C(CCS(=O)(=O)c1nc(-c2ccccc2)cc(C(F)(F)F)n1)Nc1ccc(Cl)cc1Cl [CBK268717]	84.9
CCOC(=O)c1ccc(N2C(=O)CC(N3CCCc4ccccc43)C2=O)cc1 (stereo not drawn) [CBK268720]	109
CCOC(=O)c1ccc(N2C(=O)CC(N3CCN(c4ccc(S(C)(=O)=O)cc4)CC3)C2=O)cc1 (stereo not drawn) [CBK268721]	103
Cc1ccc(OCC(=O)Nc2ccccc2N2CCN(S(C)(=O)=O)CC2)cc1 [CBK268722]	84
C=CCn1c(SCC(=O)Nc2ccnc3ccccc23)nnc1-c1cccnc1 [CBK268723]	88.6
Cc1ccc(C(C)C)c(OCC(=O)Nc2cc(-c3nc4ccccc4[nH]3)ccc2C)c1 [CBK268724]	80.7
COc1ccc(N2CCN(CCNC(=O)Nc3ccc(Cl)cc3)CC2)cc1 [CBK268725]	94.9
O=C(NC(=S)Nc1ccc2c(c1)Cc1ccccc1-2)c1cc([N+](=O)[O-])ccc1N1CCOCC1 [CBK268726]	104
CCOc1ccccc1-c1nnc(SCC(=O)NC2CCCCC2)o1 [CBK268728]	106
CCn1c(SCC(=O)Nc2ccc([N+](=O)[O-])cc2O)nnc1-c1ccccc1 [CBK268730]	87.2
COC(=O)c1ccccc1OC(=O)COc1ccc(Cl)cc1Br [CBK268733]	83.7
O=C(O)CCSc1nnc(-c2cccnc2)n1-c1ccccc1 [CBK268734]	102

Compound	viability at 28.5 h, 10 µM [%]
Cc1cc(-c2nnc(SCCC(=O)Nc3ccccc3)o2)no1 [CBK268737]	104
COc1cc(/C=C(/C#N)c2ccc(C(=O)O)cc2)c([N+](=O)[O-])cc1OCc1ccccc1 [CBK268738]	92
O=C(CN(c1ccccc1)S(=O)(=O)c1ccc(F)cc1)Nc1ccc(Cl)c(Cl)c1 [CBK268740]	86.6
CCOC(=O)N1CCN(CC(=O)N2c3ccccc3CCc3ccccc32)CC1 [CBK268744G]	111
Cc1cc2nc(/C(C#N)=C/c3ccncc3)[nH]c2cc1C [CBK268745]	87.7
CCOC(=O)C1=C(CSc2nccn2C)NC(=O)NC1c1ccc2c(c1)OCO2 (stereo not drawn) [CBK268746]	85.5
Cc1cc([N+](=O)[O-])nn1CCCC(=O)Nc1cccc(O)c1 [CBK268747]	87.1
O=S(=O)(NCc1ccco1)N1CCOCC1 [CBK268749]	90.2
COc1ccc(C)cc1S(=O)(=O)N(C)CC(=O)Nc1cccc(C(C)=O)c1 [CBK268753]	102
CC(=O)Nc1ccc(OC(=O)CSc2nc(C)cc(-c3ccccc3)n2)cc1 [CBK268754]	94.7
O=C(Cc1coc2ccc3ccccc3c12)NNC(=O)c1ccccc1[N+](=O)[O-] [CBK268763]	90.6
CCOc1cc(/C=C(/C#N)C(N)=S)ccc1OCC(=O)N1CCCC1 [CBK268765]	91.3
COc1cc(S(=O)(=O)N2CCC(C(N)=O)CC2)ccc1Br [CBK268766]	82.6
Cc1cccc(NS(=O)(=O)c2cc(C(=O)NCc3ccccn3)ccc2C)c1 [CBK268767]	70.7
Cc1ccc(-n2c(SCC(=O)Nc3ccc(C)c([N+](=O)[O-])c3)nnc2-c2ccccc2O)c(C)c1 [CBK268769]	96.6
CC(C(=O)Nc1ccc(F)c(F)c1)n1cc([N+](=O)[O-])cn1 (stereo not drawn) [CBK268771]	92.9
O=C(Nc1ccc(NC(=O)C2CC=CCC2C(=O)O)cc1Cl)C1CCCCC1 (stereo not drawn) [CBK268772]	89.7
Cc1occc1-c1nnc(SCC(=O)c2ccc3c(c2)OCCO3)o1 [CBK268773]	83.5
Cc1ccc(-c2nc3ncccc3o2)cc1NC(=O)c1cccnc1 [CBK268774]	100
CSc1ncc(Cl)c(C(=O)Nc2ccc(S(=O)(=O)N3CCOCC3)cc2)n1 [CBK268775]	106
O=C(CSc1nnc(-c2cccnc2)s1)Nc1ccc([N+](=O)[O-])cc1 [CBK268777]	112

Compound	viability at 28.5 h, 10 µM [%]
C=CCNC(=S)Nc1sc2c(c1C(=O)OCC)CC(C)CC2 (stereo not drawn) [CBK268778]	89.8
CCCOc1ccc(S(=O)(=O)NCc2ccncc2)c2ccccc12 [CBK268780]	83.3
CCOc1cc(Cl)c(S(=O)(=O)NCCCN2CCOCC2)cc1Cl [CBK268781]	87.9
CSc1ncc(Cl)c(C(=O)Nc2nc(-c3ccc(S(=O)(=O)N4CCCCCC4)cc3)cs2)n1 [CBK268785]	96.5
N=c1n(CCCOc2ccc(Br)cc2)c2ccccc2n1CC(N)=O [CBK268786C]	86.9
Cn1c(Cc2csc(N)n2)nnc1SCC(=O)NC1CCCCC1 [CBK268787]	84.3
Cc1ccc(S(=O)(=O)NNC(=O)COc2cccc3cccnc23)cc1 [CBK268788]	90.1
c1ccc2[nH]c(NCCN3CCOCC3)nc2c1 [CBK268791]	96.7
COC(=O)C1=C(Cn2ccc(C(F)(F)F)n2)NC(=O)NC1c1cc(C)ccc1C (stereo not drawn) [CBK268792]	105
Cc1ccc(N(C(C)C(=O)Nc2ccccc2C(F)(F)F)S(C)(=O)=O)cc1 (stereo not drawn) [CBK268796]	84.5
CCOC(=O)c1c(NC(=O)CSc2nnnn2C)sc(C)c1C [CBK268798]	103
COc1cc(Cl)cc(C2NC(=S)NC(c3ccccc3)=C2C(C)=O)c1OCC(=O)O (stereo not drawn) [CBK268801]	98.3
CS(=O)(=O)Nc1cccc(C2=NN(C(=O)CCC(=O)O)C(c3cccc(F)c3)C2)c1 (stereo not drawn) [CBK268804]	85
O=C(NCCN1CCOCC1)c1ccc2nccnc2c1 [CBK268806]	108
O=C(O)C(Cc1ccccc1)NS(=O)(=O)c1ccc(I)cc1 (stereo not drawn) [CBK268807]	110
Cc1ccccc1OCc1nnc(SCC(N)=O)n1-c1ccccc1 [CBK268808]	101
CC1CCc2c(sc3ncnc(NCCc4nc5ccccc5[nH]4)c23)C1 (stereo not drawn) [CBK268809]	91.6
CCOc1cc(Br)ccc1S(=O)(=O)NCc1ccc2c(c1)OCO2 [CBK268813]	108

same assay, conditions: human, hela cells, % viability, bulk resorufin, single well

Compound	viability at 28.5 h, 10 µM [%]
Cc1cccc(N2C(=O)NC(=O)C(CCc3ccncc3)(CCc3ccncc3)C2=O)c1C [CBK268705]	93.9
C=CCN1C(=O)NC(=O)C(CCc2ccccn2)(CCc2ccccn2)C1=O [CBK268761]	104
O=C1NC(=O)C(CCc2ccccn2)(CCc2ccccn2)C(=O)N1c1ccc(F)cc1 [CBK268816]	93
